Key:
[1] = target: T1, Beta-2 adrenergic receptor (Homo sapiens, UniProt P07550); assay: Antagonist activity at beta-2 AR (unknown origin) overexpressed in HEK293 cell membrane assessed as inhibition of ISO-induced cAMP production at EC80 preincubated for 15 mins followed by agonist addition measured after 30 mins by TR-FRET assay
[2] = target: T1, Beta-2 adrenergic receptor; assay: Displacement of [3H]-DHA from beta-2 AR (unknown origin) overexpressed in HEK293 cell membrane assessed as inhibition constant incubated for 90 mins by liquid scintillation analysis
[3] = target: T1, Beta-2 adrenergic receptor; assay: Displacement of [3H]-DHA from beta-2 AR (unknown origin) overexpressed in HEK293 cell membrane assessed as dissociation constant (K) incubated for 90 mins by liquid scintillation analysis

T1 sequence (P07550 whole entry): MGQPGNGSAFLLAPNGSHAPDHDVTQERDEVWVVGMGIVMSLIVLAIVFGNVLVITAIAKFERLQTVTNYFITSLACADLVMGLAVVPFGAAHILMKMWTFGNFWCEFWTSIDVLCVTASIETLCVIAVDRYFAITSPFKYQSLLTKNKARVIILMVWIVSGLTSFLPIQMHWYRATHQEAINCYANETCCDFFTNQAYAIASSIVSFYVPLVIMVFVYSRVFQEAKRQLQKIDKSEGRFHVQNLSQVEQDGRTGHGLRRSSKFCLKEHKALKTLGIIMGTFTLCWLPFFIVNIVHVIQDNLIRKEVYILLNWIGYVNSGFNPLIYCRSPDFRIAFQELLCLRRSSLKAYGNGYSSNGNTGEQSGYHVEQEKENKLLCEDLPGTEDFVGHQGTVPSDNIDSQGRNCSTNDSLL

| IC50 [1] [nM] | Ki [2] [nM] | Kd [3] [nM] | SMILES |
| --- | --- | --- | --- |
| 4790 | 389 | 589 | CC(C)NC[C@H](O)COc1ccc(CCCCN=[N+]=[N-])cc1 |
| 3980 |  |  | CC(C)NC[C@H](O)COc1ccc(CCCN=[N+]=[N-])cc1 |

Reference: ChEMBL document CHEMBL5523731, “Bitopic Ligands Support the Presence of a Metastable Binding Site at the β2 Adrenergic Receptor” (J Med Chem, 2024)
